This note sets out measurements from patent US20140005163A1 (NOVARTIS AG, priority 2010, published 2014).

As a reminder, the IC50 is the concentration needed to halve the response being measured.

The test system of test [1] is PKB Ser473 phosphorylation in Rat1-myr-HA-p110 delta cells. Nature of the test: Reverse protein array assay, PKB Ser473 phosphorylation in Rat1-myr-p110 delta cells. The format is cell-based. To be noted: read-out: p-PKB IC50. The method, boiled down:
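Measured: PKB Ser473 phosphorylation by reverse protein array in Rat1 cells expressing myr-HA-p110 alpha, beta or delta, after 30 min compound treatment at 37 °C with 0.2% DMSO vehicle.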

Test [2] addresses T1, mTOR (Homo sapiens, UniProt P42345).
T1 construct: purchased Invitrogen Corporation (Carlsbad/CA, USA) PV4753
The experiment in a line: Biochemical assay for m-TOR by TR-FRET. The note with it: 8 μM ATP, 400 nM GFP-4EBP1, 0.5 nM mTOR. Put shortly:
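Steps: ATP (8 μM final) plus GFP-4EBP1 (400 nM final) combined with mTOR (0.5 nM final), incubated at rt; buffer HEPES pH 7.5 with 10 mM MnCl2, NaCl, EGTA, DTT. Then stopped with EDTA/Tb3+-anti-p4EBP1 pT46 Ab (0.5 nM). Plates read after 15 min.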

In test [3] the target is T2, PI3K beta (Homo sapiens, UniProt P42338).
T2 construct: for the full-length p110-b subunit are generated and fused by overlapping PCR; p85(iSH2) fusion partner (see partner chain) (N); His tag (C); made in house; host or cells: baculovirus; Tn5 (Trichoplusia ni) or TiniPro insect cells
Nature of the test: PI3K beta kinase assay (Kinase-Glo luminescence). The format is biochemical. Put shortly: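 Enzyme: BV949 p85(iSH2)-Gly linker-p110β FL-His, 25 nM. Substrate: PI 10 μg/mL. ATP: 1 μM, added to start. Buffer: Tris pH 7.5 10 mM, MgCl2 3 mM, NaCl 50 mM, CHAPS 0.05%, DTT 1 mM. RT, 60 min. Readout: Kinase-Glo. IC50 by 4-parameter fit.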
A general note: Kinase-Glo reads ATP consumption through a luciferase reaction.

The structures appear in SMILES notation.

T2 sequence (P42338 with tags, fused parts or gaps limits assumed): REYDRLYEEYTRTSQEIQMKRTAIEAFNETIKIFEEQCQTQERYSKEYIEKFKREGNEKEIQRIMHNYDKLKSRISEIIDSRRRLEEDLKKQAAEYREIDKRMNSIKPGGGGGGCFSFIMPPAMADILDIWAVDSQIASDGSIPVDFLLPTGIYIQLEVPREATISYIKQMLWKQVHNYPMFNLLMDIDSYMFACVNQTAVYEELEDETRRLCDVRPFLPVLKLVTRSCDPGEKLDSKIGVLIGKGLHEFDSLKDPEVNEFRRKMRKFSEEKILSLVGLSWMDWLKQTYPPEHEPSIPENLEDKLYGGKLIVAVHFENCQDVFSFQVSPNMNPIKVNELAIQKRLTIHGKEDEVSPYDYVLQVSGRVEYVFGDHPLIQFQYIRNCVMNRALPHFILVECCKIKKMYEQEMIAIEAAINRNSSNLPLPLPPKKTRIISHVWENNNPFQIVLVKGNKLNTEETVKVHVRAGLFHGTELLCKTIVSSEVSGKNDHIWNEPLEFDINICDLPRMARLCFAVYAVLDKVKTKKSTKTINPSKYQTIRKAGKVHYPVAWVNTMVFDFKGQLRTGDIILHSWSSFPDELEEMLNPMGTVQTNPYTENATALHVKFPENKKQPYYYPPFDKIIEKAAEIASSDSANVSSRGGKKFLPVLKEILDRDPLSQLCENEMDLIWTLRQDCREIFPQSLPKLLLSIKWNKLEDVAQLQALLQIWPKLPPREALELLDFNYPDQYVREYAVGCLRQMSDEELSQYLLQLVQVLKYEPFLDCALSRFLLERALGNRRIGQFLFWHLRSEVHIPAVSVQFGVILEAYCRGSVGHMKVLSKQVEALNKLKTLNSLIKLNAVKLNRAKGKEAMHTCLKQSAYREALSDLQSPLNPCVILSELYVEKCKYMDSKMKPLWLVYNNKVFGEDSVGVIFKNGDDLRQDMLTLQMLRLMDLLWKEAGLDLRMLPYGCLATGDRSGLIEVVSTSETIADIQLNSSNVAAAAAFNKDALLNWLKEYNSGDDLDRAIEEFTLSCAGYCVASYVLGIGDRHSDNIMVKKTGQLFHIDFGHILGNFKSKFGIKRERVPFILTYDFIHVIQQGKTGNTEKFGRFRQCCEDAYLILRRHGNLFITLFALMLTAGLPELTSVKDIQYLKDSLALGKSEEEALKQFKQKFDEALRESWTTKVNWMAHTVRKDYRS
T1 sequence (P42345 1360-2549 limits assumed): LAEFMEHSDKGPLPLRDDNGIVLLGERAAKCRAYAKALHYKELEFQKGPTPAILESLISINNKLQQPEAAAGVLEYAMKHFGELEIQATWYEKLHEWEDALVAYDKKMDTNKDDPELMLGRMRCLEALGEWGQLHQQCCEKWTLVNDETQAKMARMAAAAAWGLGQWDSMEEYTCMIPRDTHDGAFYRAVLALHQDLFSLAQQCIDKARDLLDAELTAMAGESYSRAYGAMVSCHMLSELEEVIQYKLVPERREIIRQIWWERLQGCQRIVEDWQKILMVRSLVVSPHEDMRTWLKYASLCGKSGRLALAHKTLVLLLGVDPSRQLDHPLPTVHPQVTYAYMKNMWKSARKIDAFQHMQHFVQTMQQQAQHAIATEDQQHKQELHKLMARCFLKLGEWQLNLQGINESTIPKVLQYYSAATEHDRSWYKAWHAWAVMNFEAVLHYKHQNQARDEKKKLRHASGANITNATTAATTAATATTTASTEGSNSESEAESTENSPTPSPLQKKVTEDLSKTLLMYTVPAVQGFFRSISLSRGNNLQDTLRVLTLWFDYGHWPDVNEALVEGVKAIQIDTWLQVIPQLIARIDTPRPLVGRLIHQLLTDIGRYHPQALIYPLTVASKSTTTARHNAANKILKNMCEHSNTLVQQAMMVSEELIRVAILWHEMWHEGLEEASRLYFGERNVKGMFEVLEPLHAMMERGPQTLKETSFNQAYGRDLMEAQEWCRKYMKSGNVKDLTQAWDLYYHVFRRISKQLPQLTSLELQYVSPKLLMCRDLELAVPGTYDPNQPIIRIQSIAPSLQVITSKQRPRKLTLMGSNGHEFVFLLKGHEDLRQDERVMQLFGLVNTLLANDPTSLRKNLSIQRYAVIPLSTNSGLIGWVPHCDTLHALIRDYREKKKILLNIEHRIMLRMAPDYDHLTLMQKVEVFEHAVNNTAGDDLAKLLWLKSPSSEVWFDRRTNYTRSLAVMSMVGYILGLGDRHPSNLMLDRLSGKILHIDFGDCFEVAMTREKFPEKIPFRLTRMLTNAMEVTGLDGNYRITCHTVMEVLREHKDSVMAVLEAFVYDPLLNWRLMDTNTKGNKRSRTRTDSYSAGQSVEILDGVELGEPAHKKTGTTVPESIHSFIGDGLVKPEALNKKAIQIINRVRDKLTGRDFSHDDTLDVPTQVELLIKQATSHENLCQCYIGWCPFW

Regarding `CNc1cc(-c2ccc3ncc4c(c3c2)n(-c2cn(C)nc2C)c(=O)n4C)cnc1F` [Example 150.2, 1-(1,3-Dimethyl-1H-pyrazol-4-yl)-8-(6-fluoro-5-methylamino-pyridin-3-yl)-3-methyl-1,3-dihydro-imidazo[4,5-c]quinolin-2-one], the IC50 in test [1] was determined as 0.015 µM; in test [2] it was 0.008 µM; in test [3], 0.012 µM.
Regarding `COCc1ncc(-c2ccc3ncc4c(c3c2)n(-c2cn(C(C)C)nc2C)c(=O)n4C)cc1OC` [Example 195.2, 1-(1-Isopropyl-3-methyl-1H-pyrazol-4-yl)-8-(5-methoxy-6-methoxymethyl-pyridin-3-yl)-3-methyl-1,3-dihydro-imidazo[4,5-c]quinolin-2-one], the results for the IC50 in test [1], in test [2] and in test [3] were 0.343 µM, 0.087 µM and 0.163 µM, respectively.
For `COCc1ncc(-c2ccc3ncc4c(c3c2)n(-c2cn(C)nc2C)c(=O)n4C)cc1OC` [Example 195.1, 1-(1,3-Dimethyl-1H-pyrazol-4-yl)-8-(5-methoxy-6-methoxymethyl-pyridin-3-yl)-3-methyl-1,3-dihydro-imidazo[4,5-c]quinolin-2-one], the IC50 was 0.154 µM in test [1], 0.048 µM in test [2] and 0.072 µM in test [3].
For the molecule `COc1ccc(-c2ccc3ncc4c(c3c2)n(-c2cc(C)nn2C)c(=O)n4C)cn1` [Example 2.3, 1-(2,5-Dimethyl-2H-pyrazol-3-yl)-8-(6-methoxy-pyridin-3-yl)-3-methyl-1,3-dihydro-imidazo[4,5-c]quinolin-2-one], the half-inhibitory concentration (IC50) is 0.24 µM in test [1], 0.096 µM in test [2] and 0.18 µM in test [3].
As to `COc1ncc(-c2ccc3ncc4c(c3c2)n(-c2cn(C)nc2C)c(=O)n4C)cc1C#N` [Example 132, 5-[1-(1,3-Dimethyl-1H-pyrazol-4-yl)-3-methyl-2-oxo-2,3-dihydro-1H-imidazo[4,5-c]quinolin-8-yl]-2-methoxy-nicotinonitrile], the IC50 in test [1] was 0.145 µM; in test [2], 0.934 µM; in test [3], 0.161 µM.
For `Cc1nn(C)cc1-n1c(=O)n(C)c2cnc3ccc(-c4cccc(O)c4)cc3c21` [Example 32.1, 1-(1,3-Dimethyl-1H-pyrazol-4-yl)-8-(3-hydroxy-phenyl)-3-methyl-1,3-dihydro-imidazo[4,5-c]quinolin-2-one], the IC50 was found to be 0.193 µM in test [1], 0.028 µM in test [2] and 0.043 µM in test [3].
As for `COCc1cc(-c2ccc3ncc4c(c3c2)n(-c2cn(C)nc2C)c(=O)n4C)cnc1OC` [Example 202, 1-(1,3-Dimethyl-1H-pyrazol-4-yl)-8-(6-methoxy-5-methoxymethyl-pyridin-3-yl)-3-methyl-1,3-dihydro-imidazo[4,5-c]quinolin-2-one], the IC50 in test [1] was found to be 0.028 µM; in test [2], 0.029 µM; in test [3] it was 0.013 µM.
For `Cc1ncc(-c2ccc3ncc4c(c3c2)n(-c2cn(C)nc2C)c(=O)n4C)cc1OC(C)C` [Example 84.1, 1-(1,3-Dimethyl-1H-pyrazol-4-yl)-8-(5-isopropoxy-6-methyl-pyridin-3-yl)-3-methyl-1,3-dihydro-imidazo[4,5-c]quinolin-2-one], the IC50 in test [1] is 0.018 µM; in test [2] it was 0.004 µM; in test [3], 0.008 µM.
For `COc1ccc(-c2ccc3ncc4c(c3c2)n(-c2cn(C(C)C)nc2C)c(=O)n4C)cn1` [Example 2.8, 1-(1-Isopropyl-3-methyl-1H-pyrazol-4-yl)-8-(6-methoxy-pyridin-3-yl)-3-methyl-1,3-dihydro-imidazo[4,5-c]quinolin-2-one], the values for the IC50 in test [1], in test [2] and in test [3] were 0.105 µM, 0.033 µM and 0.109 µM, respectively.
For the molecule `CNC(=O)c1cc(-c2ccc3ncc4c(c3c2)n(-c2cn(C(C)C)nc2C)c(=O)n4C)cnc1N` [Example 224.2, 2-Amino-5-[1-(1-isopropyl-3-methyl-1H-pyrazol-4-yl)-3-methyl-2-oxo-2,3-dihydro-1H-imidazo[4,5-c]quinolin-8-yl]-N-methyl-nicotinamide], the concentration for half-maximal inhibition (IC50) in test [1] came out at 0.132 µM; in test [2], 0.024 µM; in test [3] it was 0.28 µM.
The corresponding values for `Cc1nn(C)cc1-n1c(=O)n(C)c2cnc3ccc(-c4cnc(CO)c(OC(C)C)c4)cc3c21` [Example 190, 1-(1,3-Dimethyl-1H-pyrazol-4-yl)-8-(6-hydroxymethyl-5-isopropoxy-pyridin-3-yl)-3-methyl-1,3-dihydro-imidazo[4,5-c]quinolin-2-one] are 0.054 µM, 0.037 µM and 0.036 µM.
As for `Cc1nn(C)cc1-n1c(=O)n(C)c2cnc3ccc(-c4cnc5cc[nH]c5c4)cc3c21` [Example 99, 1-(1,3-Dimethyl-1H-pyrazol-4-yl)-3-methyl-8-(1H-pyrrolo[3,2-b]pyridin-6-yl)-1,3-dihydro-imidazo[4,5-c]quinolin-2-one], the IC50 in test [1] was 0.019 µM; in test [2], less than 0.003 µM; in test [3] it was 0.033 µM.
For the molecule `Cc1nn(C)c(C)c1-n1c(=O)n(C)c2cnc3ccc(-c4cnc(N)c(F)c4)cc3c21` [Example 142.1, 8-(6-Amino-5-fluoro-pyridin-3-yl)-3-methyl-1-(1,3,5-trimethyl-1H-pyrazol-4-yl)-1,3-dihydro-imidazo[4,5-c]quinolin-2-one], the IC50 in test [1] is 0.306 µM; in test [2], 0.481 µM; in test [3], 0.201 µM.
Turning to `Cc1nn(C)cc1-n1c(=O)n(C)c2cnc3ccc(-c4ccc(OCCO)nc4)cc3c21` [Example 107, 1-(1,3-Dimethyl-1H-pyrazol-4-yl)-8-[6-(2-hydroxy-ethoxy)-pyridin-3-yl]-3-methyl-1,3-dihydro-imidazo[4,5-c]quinolin-2-one], the figures for the IC50 in test [1], in test [2] and in test [3] were 0.193 µM, 0.06 µM and 0.095 µM, respectively.
In the case of `Cc1nn(C)cc1-n1c(=O)n(C)c2cnc3ccc(-c4cccc5c4OC(F)(F)O5)cc3c21` [Example 35, 8-(2,2-Difluoro-benzo[1,3]dioxol-4-yl)-1-(1,3-dimethyl-1H-pyrazol-4-yl)-3-methyl-1,3-dihydro-imidazo[4,5-c]quinolin-2-one], the figures for the IC50 in test [1], in test [2] and in test [3] were 0.022 µM, 0.051 µM and 0.037 µM, respectively.
On to `Cc1nn(C)cc1-n1c(=O)n(C)c2cnc3ccc(-c4cncc(C(C)(C)C#N)c4)cc3c21` [Example 220.1, 2-{5-[1-(1,3-Dimethyl-1H-pyrazol-4-yl)-3-methyl-2-oxo-2,3-dihydro-1H-imidazo[4,5-c]quinolin-8-yl]-pyridin-3-yl}-2-methyl-propionitrile], for which the figures for the IC50 in test [1], in test [2] and in test [3] were 0.023 µM, 0.027 µM and 0.023 µM, respectively.
As for `CCOc1ccc(-c2ccc3ncc4c(c3c2)n(-c2cnn(C)c2C)c(=O)n4C)cn1` [Example 3.6, 1-(1,5-Dimethyl-1H-pyrazol-4-yl)-8-(6-ethoxy-pyridin-3-yl)-3-methyl-1,3-dihydro-imidazo[4,5-c]quinolin-2-one], the IC50 in test [1] was found to be 0.232 µM; in test [2], 0.191 µM; in test [3], 0.477 µM.
Regarding `CNc1ccc(-c2ccc3ncc4c(c3c2)n(-c2cn(C)nc2C)c(=O)n4C)cn1` [Example 118.2, 1-(1,3-Dimethyl-1H-pyrazol-4-yl)-3-methyl-8-(6-methylamino-pyridin-3-yl)-1,3-dihydro-imidazo[4,5-c]quinolin-2-one], the values for the IC50 in test [1], in test [2] and in test [3] were 0.01 µM, 0.004 µM and 0.082 µM, respectively.
With `Cc1nn(C)cc1-n1c(=O)n(C)c2cnc3ccc(-c4cccc(S(=O)(=O)N(C)C)c4)cc3c21` [Example 53.1, 3-[1-(1,3-Dimethyl-1H-pyrazol-4-yl)-3-methyl-2-oxo-2,3-dihydro-1H-imidazo[4,5-c]quinolin-8-yl]-N,N-dimethyl-benzenesulfonamide], the IC50 in test [1] stood at 0.128 µM; in test [2], 0.107 µM; in test [3] it was 0.051 µM.
The corresponding values for `CCNc1cc(-c2ccc3ncc4c(c3c2)n(-c2c(C)nn(CC(=O)N(C)C)c2C)c(=O)n4C)cnc1C` [Example 87.5, 2-{4-[8-(5-Ethylamino-6-methyl-pyridin-3-yl)-3-methyl-2-oxo-2,3-dihydro-imidazo[4,5-c]quinolin-1-yl]-3,5-dimethyl-pyrazol-1-yl}-N,N-dimethyl-acetamide] are 0.634 µM, 0.029 µM and 0.335 µM.
On to `COCc1cncc(-c2ccc3ncc4c(c3c2)n(-c2cn(C)nc2C)c(=O)n4C)c1` [Example 54.1, 1-(1,3-Dimethyl-1H-pyrazol-4-yl)-8-(5-methoxymethyl-pyridin-3-yl)-3-methyl-1,3-dihydro-imidazo[4,5-c]quinolin-2-one], for which the concentration for half-maximal inhibition (IC50) in test [1] is 0.112 µM; in test [2] it was 0.079 µM; in test [3], 0.028 µM.
With `COc1ncc(-c2ccc3ncc4c(c3c2)n(-c2cn(C)nc2C)c(=O)n4C)c(OC)n1` [Example 234.2, 8-(2,4-Dimethoxy-pyrimidin-5-yl)-1-(1,3-dimethyl-1H-pyrazol-4-yl)-3-methyl-1,3-dihydro-imidazo[4,5-c]quinolin-2-one], the IC50 in test [1] was 0.023 µM; in test [2], 0.01 µM; in test [3] it was 0.025 µM.
